In patent publication US6399664B2, “Method of treating cancer, specifically leukemia, with ozone” (priority 1996, dated 2002):

Legend:
[1] = tested on: chronic myeloid leukemia (CML); assay: Conventional chemotherapy with Hydroxyurea of CML canine #198675
[2] = tested on: cultured human cancerous cell lines derived from lung, breast and uterine solid tumours; settings: little damage to normal cell growth; cited from earlier work
[3] = tested on: K562 leukemic cell line; assay: K562 colony formation and differentiation in methylcellulose medium; type: cell-based, human
Description: (§1) Ozone and ROI's were generated using medical grade oxygen from a high voltage corona discharge electrical ozone generator (Carpendale and Freeberg, 1991; Viebahn, 1994; FIG. 13). Liquid RPMI complete media suspension of K562 cell cultures or normal human whole blood (10 ml each treatment) was processed through a micro-bubbling device at several ozone concentrations (5, 10, 15, and 25 μg/ml). In addition, a 100% oxygen treated and non-processed control samples were also examined. After processing, complete blood counts were measured on all whole blood samples. Peripheral blood mononuclear cells (PBMC) were isolated using a standard density gradient of 1.077 g/ml and washed with Iscove's medium. Viability and cell counts were determined manually using a hemocytrometer and a 4% solution of Trypan blue. Cell concentrations were adjusted to 2.0×10^6 cells/ml. Cells were mixed in a 1:10 (v/v) ratio with methylcellulose medium with recombinant growth factors (#HCC-4434, StemCell Technologies Inc.) and plated to contain 2×10^5 cells per plate in duplicate for normal PBMCs and 2×10^4 for K562 cells. Plates were incubated at 37° C. in a CO2/O2 incubator. Colonies were scored on day 5, 8, 10 and day 14 according to the scoring criteria by StemCell Technologies. The data results for cell viability, total colonies (proliferation) and individual colony cell types (differentiation) are presented in FIGS. 1-8.

[4] = tested on: normal human peripheral blood mononuclear cells (PBMC); assay: Normal human PBMC colony formation in methylcellulose medium; type: cell-based; settings: ozone 5, 10, 15, 25 μg/ml
Description: as §1, with “The data results for cell viability, total colonies (proliferation) and individual colony cell types (differentiation) are presented in FIGS. 1-8.” left out

[5] = tested on: K562, Human CML cell line; assay: K562 viability by Trypan blue exclusion after ozone micro-bubbling; type: cell-based; settings: ozone 5, 10, 15, 25 μg/ml
Description: as §1, with “The data results for cell viability, total colonies (proliferation) and individual colony cell types (differentiation) are presented in FIGS. 1-8.” left out

[6] = tested on: cytokine levels such as IL-1, IL-2 and IFN-γ; settings: in humans; cited from earlier work
[7] = tested on: normal human peripheral blood leukocytes; assay: Effects of ozone on normal human leukocytes run in parallel; type: cell-based; settings: at the concentrations used
Description: as §1, with “The data results for cell viability, total colonies (proliferation) and individual colony cell types (differentiation) are presented in FIGS. 1-8.” left out

[8] = tested on: chronic myeloid leukemia (CML); assay: Ozone/ROI therapy (iv injection, adjunct minor autohemotherapy) of CML canine #198675; type: in vivo
Description: The attending veterinarian discussed euthanasia and the ozone or ROI therapy described in this invention with the owner under strict confidence. The owner and all attending veterinarians signed consent and confidentiality forms and the ozone or ROI therapy began on Sep. 23, 1997 and continued for 16 weeks. Prior to each weekly ozone or ROI treatment the patient's complete blood counts were measured using a Coulter Counter Hematology Analyzer (Coulter Electronics Canada Co.). The leukocyte differential counts were determined manually by the pathologist and recorded in FIG. 14. Ozone and ROI's were generated from a high voltage corona discharge electrical ozone generator using medical grade oxygen as shown in FIG. 13. Ozone/oxygen gas (30 to 60 ml) was injected intra-venously (iv) through a sterile catheter needle (Abbocath-T, 22 g×11⁄4 in.; Abbott Ireland) inserted in the leg vein of the mammal (canine #198675) with a sterile extension set (79 cm, […], Abbott Ireland) attached to the syringe containing the ozone ROI gas mixture. The ozone/oxygen gas mixture was slowly injected over a 10 to 20 minute period to allow maximum gas absorption. The secondary or adjunct to the preferred route of administration was minor autohemotherapy (minor AHT) where heparinized whole blood (7 ml each treatment) was gently mixed in a disposable syringe or devise with increasing doses of ozone to a maximum of 25 ml at 34 to 42 μg/ml (dose is species specific). The blood gas mixture was allowed to equilibrate at room temperature for 1 to 5 minutes with intermittent mixing. The excess gas was evacuated prior to intramuscular (im) or subcutaneous (sc) injection of the ozonated blood at several locations. Patients were accessed prior to, during and post treatment by blood tests, clinical response, and biopsy when appropriate.

[9] = 500 mg twice daily for approximately one year
[10] = 16 μg/ml ozone injected, up to 197 ug total, in vivo concentration less than 0.25 μg/ml
[11] = 28 to 42 μg/ml ozone injected, up to 2100 ug total, in vivo concentration 0.5 to 1.5 μg/ml

In the case of `NC(=O)NO` [Hydroxyurea], the RBC counts [1, 9] is reported as “increased with time”, the “WBC levels relative to normal canine range of 6.1 to 17.4×10^9 cells per liter” value [1, 9] is reported as “never returned to the normal canine range” and the “side effects (clinical presentation)” value [1, 9] is reported as “depression, lethargy, severe to mild diarrhea, anorexia, vomiting, weight loss, occasionally vaginal bleeding, abdominal pain and splenomegaly”. The “total WBC counts” value [1, 9] was “decrease” and the “time of entering blast crisis after cessation of conventional chemotherapy” value ([1]; after one year of chemotherapy) was 1.5 months.
In the case of `O=[O+][O-]` [ozone], the “growth of cultured human cancerous cell lines” value [2] is given as “selectively inhibit the growth”, the “colony differentiation, dose response” value ([3]; increasing concentrations of ozone) is given as “increased colony differentiation into normal cells” and the “production of normal hematopoietic colonies (CFU-E, BFU-E, GM-CFU, CFU-GEMM) from K562” value ([3]; ozone 5, 10, 15, 25 μg/ml) is given as “stimulates the production of normal hematopoietic colonies”. The “proliferation of leukemia derived colonies” value ([3]; ozone 5, 10, 15, 25 μg/ml, total colonies) was “inhibits the proliferation”, the “effects in the colonies from normal human PBMC” value [4] was “no deleterious effects” and the “viability of malignant cells” value [5] was “reduction in the viability”. For the same compound, the “cytokine levels such as IL-1, IL-2 and IFN-γ” value [6] was “increases cytokine levels”, the “effects on normal human leukocytes” value [7] was “no significant deleterious effects” and the “effect on canine hematopoietic system” value [8, 10] was “significant activation”. For the same compound, the “production of leukemic cells” value [8, 10] was “significant increase”, the “progression of CML (total WBC and RBC counts)” value ([8]; 16 week treatment) was “reversed the progression of CML” and the “effect on canine hematopoietic system” value [8, 11] was “significant inhibition”. The “production of leukemic cells” value [8, 11] was “significant reduction”, the “patient's quality of life” value ([8]; CML canine #198675, weekly ozone/ROI treatment, 16 weeks) was “increase” and the diarrhea ([8]; CML canine #198675, diarrhea not related to CML) was “slight improvement in the diarrhea, although only temporary”. The vomiting ([8]; after the first two weeks of treatment) was “decrease”, the “ability of the immature stem cell to differentiate into the different blood cell types” value ([8]; ozone dose dependent, 16 to 42 μg/ml generated ozone concentration) was “improved” and the “total WBC counts” value ([8]; with the increase of the internal ozone concentration in the mammal) was “decrease”.
